Laboratory results: patent publication US11225480B2, “Malic enzyme inhibitors” (SUN PHARMA ADVANCED RESEARCH COMPANY LTD, priority 2019, dated 2022)

biological target: T1, human ME3 enzyme (Homo sapiens, UniProt Q16798); assay: ME3 inhibition assay (diaphorase/resazurin coupled fluorescence); type: biochemical; details: 10 μM compound concentration; read-out: Malic Enzyme 3 % inhibition (10 μM)
T1 sequence (Q16798 1-604): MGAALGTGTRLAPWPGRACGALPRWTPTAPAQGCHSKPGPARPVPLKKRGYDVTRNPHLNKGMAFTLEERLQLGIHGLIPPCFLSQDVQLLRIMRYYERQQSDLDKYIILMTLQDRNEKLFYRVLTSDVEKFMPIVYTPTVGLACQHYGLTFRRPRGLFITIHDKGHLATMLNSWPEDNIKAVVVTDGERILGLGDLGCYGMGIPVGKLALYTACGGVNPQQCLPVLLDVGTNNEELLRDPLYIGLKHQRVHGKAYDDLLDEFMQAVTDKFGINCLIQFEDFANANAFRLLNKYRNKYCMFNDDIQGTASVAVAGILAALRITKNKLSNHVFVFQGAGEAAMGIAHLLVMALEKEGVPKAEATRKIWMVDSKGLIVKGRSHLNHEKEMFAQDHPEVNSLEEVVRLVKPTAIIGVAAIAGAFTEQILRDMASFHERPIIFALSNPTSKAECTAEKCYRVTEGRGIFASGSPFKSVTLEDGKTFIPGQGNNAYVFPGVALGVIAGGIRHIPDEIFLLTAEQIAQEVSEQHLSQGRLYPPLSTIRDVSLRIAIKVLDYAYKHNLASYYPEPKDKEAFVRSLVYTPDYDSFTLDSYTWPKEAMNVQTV
Procedure: ME3 catalyzes the oxidative decarboxylation of malate to pyruvate with conversion of the co-factor β-NADP+ to NADPH. In the fluorescence assay, a coupled reaction is set up wherein an enzyme, Diaphorase, utilizes NADPH generated by ME3, to convert the dye resazurin to a fluorescent molecule resorufin.
The enzyme activity inhibition assay is set up in a 200 μL final reaction volume in a 96-well plate. As per the experimental design, 2 μL of the test compounds at 100× the desired concentration (10 μM) in DMSO were added to the respective wells with 178 μL of assay buffer (50 mM Tris-HCl pH 7.5, 10 mM MnCl2, 3 mM L-malate, 50 μM Resazurin and 0.025 mg/ml Diapharose). The 96-well plate was incubated on a plate shaker at room temperature for 15 minutes protected from light. The well contents were gently mixed by adding 10 μL of 20 nM human ME3 enzyme to the wells and the plate was incubated on a shaker at room temperature for 5 minutes protected from light. Suitable enzyme only and no enzyme controls were included in the experiment. The enzyme reaction was started by adding 10 μL of 1 mM D-NADP+. The reaction was gently mixed and the plate was initially left on a shaker at room temperature for ˜7 minutes protected from light. Later, the plate was incubated without shaking at room temperature for 3 hours. At the end of 3 hours, the fluorescence of the wells was measured at excitation 540 nm and emission 600 nm.

Structure (SMILES)	inhibition at 10 µM [%]
COCCN1CCC(C(=O)N2CCN(c3ccc(O)cc3)CC2)CC1 [I.7, [4-(4-Hydroxy-phenyl)-piperazin-1-yl]-[1-(2-methoxy-ethyl)-piperidin-4-yl]-methanone]	> 90
O=C(c1n[nH]c2ccccc12)N1CCN(c2ccc(O)cc2)CC1 [I.8, [4-(4-Hydroxy-phenyl)-piperazin-1-yl]-(1H-indazol-3-yl)-methanone]	> 90
COCCOc1ccc2[nH]cc(C(=O)N3CCN(c4ccc(O)cc4)CC3)c2c1 [I.10, [4-(4-Hydroxy-phenyl)-piperazin-1-yl]-[5-(2-methoxy-ethoxy)-1H-indol-3-yl]-methanone]	> 90
CCCCOc1ccc(/C=C/C(=O)N2CCN(c3ccc(O)cc3)CC2)cc1 [I.12, 3-(4-Butoxy-phenyl)-1-[4-(4-hydroxy-phenyl)-piperazin-1-yl]-propenone]	> 90
CCCCOc1ccc(CCC(=O)N2CCN(c3ccc(O)cc3)CC2)cc1 [I.13, 3-(4-Butoxy-phenyl)-1-[4-(4-hydroxy-phenyl)-piperazin-1-yl]-propan-1-one]	> 90
CCCCOc1ccc2[nH]cc(C(=O)N3CCN(c4ccc(O)cc4)CC3)c2c1 [I.14, (5-Butoxy-1H-indol-3-yl)-[4-(4-hydroxy-phenyl)-piperazin-1-yl]-methanone]	> 90
O=C(c1cn(Cc2ccccc2)c2ccccc12)N1CCN(c2ccc(O)cc2)CC1 [I.15, (1-Benzyl-1H-indol-3-yl)-[4-(4-hydroxy-phenyl)-piperazin-1-yl]-methanone]	> 90
CC(=O)N[C@@H](Cc1ccccc1)C(=O)N1CCN(c2ccc(O)cc2)CC1 [I.16, N-{(1S)-1-Benzyl-2-[4-(4-hydroxy-phenyl)-piperazin-1-yl]-2-oxoethyl}-acetamide]	> 90
O=C(C(=O)N1CCN(c2ccc(O)cc2)CC1)c1ccccc1 [I.17, 1-[4-(4-hydroxyphenyl)-piperazin-1-yl]-2-phenyl-ethane-1,2-dione]	> 90
CCCCn1cc(C(=O)N2CCN(c3ccc(O)cc3)CC2)c2ccccc21 [I.18, (1-Butyl-1H-indol-3-yl)-[4-(4-hydroxy-phenyl)-piperazin-1-yl]-methanone]	> 90
CC(=O)N[C@@H](C(=O)N1CCN(c2ccc(O)cc2)CC1)c1ccccc1 [I.19, N-{(1R)-2-[4-(4-Hydroxy-phenyl)-piperazin-1-yl]-2-oxo-1-phenyl-ethyl}acet-amide]	> 90
O=C(c1cc(-c2ccccc2)nc(-c2ccccc2)c1)N1CCN(c2ccc(O)cc2)CC1 [I.20, (2,6-diphenyl-4-pyridyl)-[4-(4-hydroxyphenyl)piperazin-1-yl]methanone]	> 90
O=C(c1cc2ccccc2c2ccccc12)N1CCN(c2ccc(O)cc2)CC1 [I.22, [4-(4-Hydroxy-phenyl)-piperazin-1-yl]-phenanthren-9-yl-methanone]	> 90
O=C(CCc1ccc2ccccc2c1)N1CCN(c2ccc(O)cc2)CC1 [I.23, 1-[4-(4-Hydroxy-phenyl)-piperazin-1-yl]-3-naphthalen-2-yl-propan-1-one]	> 90
O=C(c1cnc2ccccc2c1)N1CCN(c2ccc(O)cc2)CC1 [I.24, [4-(4-Hydroxy-phenyl)-piperazin-1-yl]-quinolin-3-yl-methanone]	> 90
O=C(c1cccc2cc3ccccc3cc12)N1CCN(c2ccc(O)cc2)CC1 [I.25, Anthracen-1-yl-[4-(4-hydroxy-phenyl)-piperazin-1-yl]-methanone]	> 90
O=C(c1cccc2c1ccn2Cc1ccccc1)N1CCN(c2ccc(O)cc2)CC1 [I.26, (1-benzylindol-4-yl)-[4-(4-hydroxyphenyl)piperazin-1-yl]methanone]	> 90
O=C(c1cc(-c2ccccc2)cc(-c2ccccc2)c1)N1CCN(c2ccc(O)cc2)CC1 [I.27, (3,5-Diphenyl-phenyl)-[4-(4-hydroxy-phenyl)-piperazin-1-yl]methanone]	> 90
O=C(c1cccn2ccnc12)N1CCN(c2ccc(O)cc2)CC1 [I.29, [4-(4-Hydroxy-phenyl)-piperazin-1-yl]-imidazo[1,2-a]124yridine-8-yl-methanone]	> 90

Structure (SMILES)	inhibition at 10 µM [%]
O=C(c1cccc2[nH]ccc12)N1CCN(c2ccc(O)cc2)CC1 [I.30, [4-(4-Hydroxy-phenyl)-piperazin-1-yl]-(1H-indol-4-yl)-methanone]	> 90
O=C(c1cccn2c(-c3ccc(C(F)(F)F)cc3)cnc12)N1CCN(c2ccc(O)cc2)CC1 [I.31, [4-(4-hydroxy-phenyl)-piperazin-1-yl]-[3-(4-trifluoromethyl-phenyl)-imidazo[1,2-a]pyridin-8-yl]-methanone]	> 90
O=C(O)c1cc(N2CCN(C(=O)Cc3ccccc3)CC2)ccc1O [I.32, 2-hydroxy-5-(4-phenylacetyl-piperazin-1-yl)-benzoic acid]	70 to 89
O=C(c1cc(-c2ccccc2)nc(N2CCOCC2)c1)N1CCN(c2ccc(O)cc2)CC1 [I.33, [4-(4-Hydroxy-phenyl)-piperazin-1-yl]-(2-morpholino-6-phenyl-4-pyridyl)-methanone]	> 90
O=C(c1ccnc(-c2ccccc2)c1)N1CCN(c2ccc(O)cc2)CC1 [I.34, [4-(4-Hydroxy-phenyl)-piperazin-1-yl]-(2-phenyl-4-pyridyl)-methanone]	> 90
O=C(c1ccnc(N2CCOCC2)c1)N1CCN(c2ccc(O)cc2)CC1 [I.35, [4-(4-Hydroxy-phenyl)-piperazin-1-yl]-(2-morpholino-4-pyridyl)-methanone]	> 90
O=C(c1cc(Cl)nc(N2CCOCC2)c1)N1CCN(c2ccc(O)cc2)CC1 [I.36]	> 90
N#Cc1cc(N2CCN(C(=O)c3cc(-c4ccccc4)nc(-c4ccccc4)c3)CC2)ccc1O [I.37, 5-[4-(2,6-diphenylpyridine-4-carbonyl)piperazin-1-yl]-2-hydroxy-benzonitrile]	50 to 69
O=C(O)c1cc(N2CCN(C(=O)c3cc(-c4ccccc4)nc(-c4ccccc4)c3)CC2)ccc1O [I.38, 5-[4-(2,6-Diphenyl-pyridine-4-carbonyl)-piperazin-1-yl]-2-hydroxy-benzoic acid]	> 90
O=C(c1ccc(Cl)s1)N1CCN(c2ccc(O)cn2)CC1 [I.76, (5-Chloro-thiophen-2-yl)-[4-(5-hydroxy-pyridin-2-yl)-piperazin-1-yl]-methanone]	> 90
O=C(/C=C/c1ccc([N+](=O)[O-])cc1)N1CCN(c2ccc(O)cn2)CC1 [I.77, (E)-1-[4-(5-Hydroxy-pyridin-2-yl)-piperazin-1-yl]-3-(4-nitro-phenyl)-propenone]	> 90
O=C(/C=C/c1ccc(Cl)cc1)N1CCN(c2ccc(O)cn2)CC1 [I.78, (E)-3-(4-Chlorophenyl)-1-[4-(5-hydroxy-pyridin-2-yl)-piperazin-1-yl]-propenone]	> 90
Cc1cn(-c2cc(C(=O)N3CCN(c4ccc(O)cn4)CC3)cc(C(F)(F)F)c2)cn1 [I.81, [4-(5-Hydroxy-pyridin-2-yl)-piperazin-1-yl]-[3-(4-methyl-imidazol-1-yl)-5-trifluoro-methylphenyl]-methanone]	> 90
Cc1ccc(C(=O)N2CCN(c3ccc(O)cn3)CC2)cc1Nc1nccc(-c2cccnc2)n1 [I.85, [4-(5-hydroxy-pyridin-2-yl)-piperazin-1-yl]-[4-methyl-3-(4-pyridin-3-yl-pyrimidin-2-ylamino)-phenyl]-methanone]	> 90
O=C(c1nc2ccccc2[nH]1)N1CCN(c2ccc(O)cn2)CC1 [I.86, (1H-Benzo-imidazol-2-yl)-[4-(5-hydroxy-pyridin-2-yl)-piperazin-1-yl]-methanone]	> 90
O=C(c1ccc(Br)s1)N1CCN(c2ccc(O)cn2)CC1 [I.87, (5-Bromo-thiophen-2-yl)-[4-(5-hydroxy-pyridin-2-yl)-piperazin-1-yl]-methanone]	> 90
CN(CC(=O)N1CCN(c2ccc(O)cn2)CC1)S(=O)(=O)c1cccc2cccnc12 [I.89, quinoline-8-sulfonic acid {2-[4-(5-hydroxypyridin-2-yl)-piperazin-1-yl]-2-oxo-ethyl}-methylamide]	> 90
CC(C)Cc1ccc(CCC(=O)N2CCN(c3ccc(O)cn3)CC2)cc1 [I.90, 1-[4-(5-Hydroxy-pyridin-2-yl)-piperazin-1-yl]-3-(4-isobutyl-phenyl)-propan-1-one]	> 90
